{"source": "patent US20240269079A1", "about": "“MELATONIN FORMULATION IN SOLID DOSAGE FORM” (AGB-Pharma AB, priority 2021, published 2024)", "origin": "cited, not measured here", "key": {"[1]": {"conditions": "after administration"}}, "data": [{"smiles": "COc1ccc2[nH]cc(CCNC(C)=O)c2c1", "note": "[melatonin, N-acetyl-5-methoxytryptamine]", "values": [{"measurement": "Time for blood levels to return to normal daytime levels", "setting": "[1]", "result": "6 to 8", "unit": "h"}, {"measurement": "Solubility in aqueous solutions", "result": "low solubility"}]}]}
